test system: not listed separately; test: Pharmacokinetics assay in SD rats, intragastric administration, plasma by LC/MS/MS; type: in vivo, Sprague-Dawley (SD) rats; details: 3.0 mg/kg
Procedure: Sprague-Dawley (SD) rats were used as test animals. The compounds of Example 1, Example 2 and Example 3 were administered intragastrically to rats to determine the drug concentration in plasma at different time points by a LC/MS/MS method. The pharmacokinetic behavior of the compounds of the present invention was studied and evaluated in rats.
12 Healthy adult SD rats, half male and half female, purchased from SINO-BRITSH SIPPR/BK LAB. ANIMAL LTD., CO, Certificate No.: SCXK (Shanghai) 2008-0016, were divided into three groups, with 4 rats in each group.
The appropriate amounts of test compounds were weighed and mixed with 0.5% CMC-Na to prepare a 0.3 mg/mL suspension by an ultrasonic method.
After an overnight fast, 12 SD rats, half male and half female, were divided into 3 groups, with 4 rats in each group, and administered the compounds intragastrically at a dose of 3.0 mg/kg and an administration volume of 10 mL/kg.
Blood samples (0.1 mL) were taken from the orbital sinus before administration, and at 0.5 h, 1 h, 2 h, 4 h, 6 h, 8 h, 11 h, 24 h and 48 h after administration, stored in heparinized tubes, and centrifuged for 10 minutes at 3,500 rpm to separate blood plasma. The plasma samples were stored at −20° C.
The concentration of the test compounds in rat plasma after intragastrically administering the test compounds was analyzed by a LC-MS/MS method. The linearity range of the method is 2.0-5000 ng/ml, and the lower limit of quantification is 2.00 ng/ml. Plasma samples were analyzed after protein precipitation.

Mean Residence Time MRT [h] | SMILES
12.9 ± 5.8 | O=C(O)C1(Sc2ccnc3ccc(C(F)(F)F)cc23)CCC1 [Example 2, 1-((6-(trifluoromethyl)quinolin-4-yl)thio)cyclobutanecarboxylic acid]

same assay, conditions: both sexes, Sprague-Dawley, rat, plasma, po, 3.0 mg/kg, read-out: Apparent Distribution Volume Vz/F

Vd/F [L/kg] | SMILES
1.21 ± 0.674 | O=C(O)C1(Sc2ccnc3ccc(C(F)(F)F)cc23)CCC1 [Example 2, 1-((6-(trifluoromethyl)quinolin-4-yl)thio)cyclobutanecarboxylic acid]
0.652 ± 0.333 | O=C(O)C1(Sc2ccnc3ccccc23)CCC1 [Example 1, 1-(quinolin-4-ylthio)cyclobutanecarboxylic acid]
0.878 ± 0.335 | O=C(O)C1(Sc2ccnc3ccc(Br)cc23)CCC1 [Example 3, 1-((6-bromoquinolin-4-yl)thio)cyclobutanecarboxylic acid]

same assay, conditions: both sexes, Sprague-Dawley, rat, plasma, po, 3.0 mg/kg, read-out: Area Under Curve AUC

AUC [ng·h/mL] | SMILES
38200 ± 25100 | O=C(O)C1(Sc2ccnc3ccc(C(F)(F)F)cc23)CCC1 [Example 2, 1-((6-(trifluoromethyl)quinolin-4-yl)thio)cyclobutanecarboxylic acid]
20700 ± 5270 | O=C(O)C1(Sc2ccnc3ccccc23)CCC1 [Example 1, 1-(quinolin-4-ylthio)cyclobutanecarboxylic acid]
28400 ± 8540 | O=C(O)C1(Sc2ccnc3ccc(Br)cc23)CCC1 [Example 3, 1-((6-bromoquinolin-4-yl)thio)cyclobutanecarboxylic acid]

same assay, conditions: both sexes, Sprague-Dawley, rat, plasma, po, 3.0 mg/kg, read-out: Clearance CL/F

CL/F [mL/min/kg] | SMILES
1.95 ± 1.31 | O=C(O)C1(Sc2ccnc3ccc(C(F)(F)F)cc23)CCC1 [Example 2, 1-((6-(trifluoromethyl)quinolin-4-yl)thio)cyclobutanecarboxylic acid]
2.54 ± 0.68 | O=C(O)C1(Sc2ccnc3ccccc23)CCC1 [Example 1, 1-(quinolin-4-ylthio)cyclobutanecarboxylic acid]
1.89 ± 0.59 | O=C(O)C1(Sc2ccnc3ccc(Br)cc23)CCC1 [Example 3, 1-((6-bromoquinolin-4-yl)thio)cyclobutanecarboxylic acid]

same assay, conditions: both sexes, Sprague-Dawley, rat, plasma, po, 3.0 mg/kg, read-out: Half-Life T½ (converted)

half-life [h] | SMILES
8.83 ± 4.04 | O=C(O)C1(Sc2ccnc3ccc(C(F)(F)F)cc23)CCC1 [Example 2, 1-((6-(trifluoromethyl)quinolin-4-yl)thio)cyclobutanecarboxylic acid]
2.84 ± 0.65 | O=C(O)C1(Sc2ccnc3ccccc23)CCC1 [Example 1, 1-(quinolin-4-ylthio)cyclobutanecarboxylic acid]
5.35 ± 1.12 | O=C(O)C1(Sc2ccnc3ccc(Br)cc23)CCC1 [Example 3, 1-((6-bromoquinolin-4-yl)thio)cyclobutanecarboxylic acid]

same assay, conditions: both sexes, Sprague-Dawley, rat, plasma, po, 3.0 mg/kg, read-out: Mean Residence Time MRT

MRT [h] | SMILES
3.15 ± 0.82 | O=C(O)C1(Sc2ccnc3ccccc23)CCC1 [Example 1, 1-(quinolin-4-ylthio)cyclobutanecarboxylic acid]
8.15 ± 1.3 | O=C(O)C1(Sc2ccnc3ccc(Br)cc23)CCC1 [Example 3, 1-((6-bromoquinolin-4-yl)thio)cyclobutanecarboxylic acid]

same assay, conditions: both sexes, Sprague-Dawley, rat, plasma, po, 3.0 mg/kg, read-out: Plasma Conc. Cmax

Cmax [ng/mL] | SMILES
2710 ± 919 | O=C(O)C1(Sc2ccnc3ccc(C(F)(F)F)cc23)CCC1 [Example 2, 1-((6-(trifluoromethyl)quinolin-4-yl)thio)cyclobutanecarboxylic acid]
8800 ± 1760 | O=C(O)C1(Sc2ccnc3ccccc23)CCC1 [Example 1, 1-(quinolin-4-ylthio)cyclobutanecarboxylic acid]
3470 ± 854 | O=C(O)C1(Sc2ccnc3ccc(Br)cc23)CCC1 [Example 3, 1-((6-bromoquinolin-4-yl)thio)cyclobutanecarboxylic acid]

molecular target: hURAT1 (Homo sapiens (Human), UniProt Q96S37); test: Assay for inhibiting URAT1: uptake of 14C-uric acid in HEK293/hURAT1 cells; type: cell-based; details: 14C-uric acid 11.57 μM, 12 minutes at room temperature
Procedure: In vitro URAT1 assay can be used to identify compounds having potential activity for decreasing serum uric acid. In a suitable test, the vectors that encode human URAT1 (URAT1 cDNA: Guangzhou Copoeia EX-T4563-M02) were used to transfect cells (human embryonic kidney cells, HEK293: Cell Bank of the Chinese Academy of Sciences, GNHu18). The transfected cells—HEK293/hURAT1 cells—were obtained, then their uptake ability of radiolabeled uric acid was determined. The activity of the compounds as URAT1 inhibitors can be evaluated by the ability of the compounds to block the uptake of uric acid in the transfected cells.
The HEK293/hURAT1 cells in Eagle's minimal essential medium (EMEM) were inoculated in a 48-well plate that was coated with poly-D-lysine (Becton Dickinson, Catalog No. 356509), with an inoculation density of 10^5 cells/well, and incubated overnight. A reaction solution containing ^14C— uric acid (American Radioactive Compound, Catalog No. ARC 0513A) with a final concentration of 11.57 μM was prepared by the use or non-use of the test compounds in Hanks balanced salt solution (HBSS). The Hanks balanced salt solution (HBSS) contained 125 mM sodium gluconate, 4.8 mM potassium gluconate, 1.2 mM potassium dihydrogen phosphate, 1.2 mM magnesium sulfate, 1.3 mM calcium gluconate, 5.6 mM glucose and 25 mM HEPES (pH 7.3). After the medium was washed with the wash buffer (125 mM sodium gluconate, 10 mM HEPES, pH 7.3) for one time, the reaction solution prepared from the above step was added to each well and incubated at room temperature for 12 minutes. Then the reaction solution was removed, the cells were washed twice with the wash buffer and lysed with 0.2 M NaOH for 5 minutes. The cell lysate was transferred to a 96-well culture plate with a scintillation fluid (PerkinElmer, Catalog No. 1450-401), and counting of radioactivity was carried out on a Microbeta counter (PerkinElmer).
The test compounds were dissolved in DMSO, then DMSO with the same concentration was added to HEK293/hURAT1 cell wells without the test compounds. Cellular uptake of uric acid under various test conditions was expressed as average percentage inhibition rates in comparison to DMSO control. Radioactive values from the wells containing DMSO were considered as 100% uptake of the cells. IC50 values were calculated from the data of the inhibition rates at various concentrations.
The above assay was used to determine the biochemical activity of the compounds of the present invention for inhibiting hURAT1.

Chain of hURAT1 (Q96S37 whole entry): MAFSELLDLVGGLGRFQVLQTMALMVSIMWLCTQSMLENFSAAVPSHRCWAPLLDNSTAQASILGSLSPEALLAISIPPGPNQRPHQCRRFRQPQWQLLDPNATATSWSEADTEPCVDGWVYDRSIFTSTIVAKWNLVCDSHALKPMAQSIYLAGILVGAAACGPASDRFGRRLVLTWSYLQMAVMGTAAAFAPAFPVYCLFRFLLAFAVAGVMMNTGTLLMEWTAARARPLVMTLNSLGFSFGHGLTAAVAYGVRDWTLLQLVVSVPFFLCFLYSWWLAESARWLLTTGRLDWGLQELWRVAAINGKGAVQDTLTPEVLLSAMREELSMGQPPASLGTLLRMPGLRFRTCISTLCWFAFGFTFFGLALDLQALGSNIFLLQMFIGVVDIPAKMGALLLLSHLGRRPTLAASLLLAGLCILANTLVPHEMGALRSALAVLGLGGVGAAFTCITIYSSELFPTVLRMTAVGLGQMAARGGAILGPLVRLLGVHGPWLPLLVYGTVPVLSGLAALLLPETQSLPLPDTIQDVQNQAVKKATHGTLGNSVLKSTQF

SMILES | IC50 [µM]
COC(=O)COc1ccc2nccc(SC3(C(=O)O)CCC3)c2c1 [Example 13, 1-((6-(2-methoxy-2-oxoethoxy)quinolin-4-yl)thio)cyclobutanecarboxylic acid] | 0.164
O=C(O)C1(Sc2ccnc3ccc(-c4cccc(F)c4)cc23)CCC1 [Example 6, 1-((6-(3-fluorophenyl)quinolin-4-yl)thio)cyclobutanecarboxylic acid] | 0.332
COc1ccc2nccc(SC3(C(=O)O)CCC3)c2c1 [Example 4, 1-((6-methoxyquinolin-4-yl)thio)cyclobutanecarboxylic acid] | 0.343
O=C(O)C1(Sc2ccnc3ccc(F)cc23)CCC1 [Example 12, 1-((6-fluoroquinolin-4-yl)thio)cyclobutanecarboxylic acid] | 0.557
O=C(O)C1(Sc2ccnc3ccc(C(F)(F)F)cc23)CCC1 [Example 2, 1-((6-(trifluoromethyl)quinolin-4-yl)thio)cyclobutanecarboxylic acid] | 0.061
O=C(O)C1(Sc2ccnc3ccc(-c4ccc(F)cc4)cc23)CCC1 [Example 7, 1-((6-(4-fluorophenyl)quinolin-4-yl)thio)cyclobutanecarboxylic acid] | 0.159
COCCOc1ccc2nccc(SC3(C(=O)O)CCC3)c2c1 [Example 5, 1-((6-(2-methoxyethoxy)quinolin-4-yl)thio)cyclobutanecarboxylic acid] | 0.207
O=C(O)C1(Sc2ccnc3ccccc23)CCC1 [Example 1, 1-(quinolin-4-ylthio)cyclobutanecarboxylic acid] | 0.251
O=C(O)C1(Sc2ccnc3ccc(Br)cc23)CCC1 [Example 3, 1-((6-bromoquinolin-4-yl)thio)cyclobutanecarboxylic acid] | 0.019
COCc1ccc2nccc(SC3(C(=O)O)CCC3)c2c1 [Example 9, 1-((6-(methoxymethyl)quinolin-4-yl)thio)cyclobutanecarboxylic acid] | 0.197
N#Cc1ccc2nccc(SC3(C(=O)O)CCC3)c2c1 [Example 17, 1-((6-cyanoquinolin-4-yl)thio)cyclobutanecarboxylic acid] | 0.398
O=C(O)C1(Sc2ccnc3ccc(-c4cccc(C(F)(F)F)c4)cc23)CCC1 [Example 8, 1-((6-(3-(trifluoromethyl)phenyl)quinolin-4-yl)thio)cyclobutanecarboxylic acid] | 0.359
N#Cc1ccc(SC2(C(=O)O)CCC2)c2ccccc12 [Example 10, 1-((4-cyanonaphthalen-1-yl)thio)cyclobutanecarboxylic acid] | 0.926

Continued, values first:

IC50 [µM] | SMILES
0.324 | O=C(O)C1(Sc2ccnc3ccc(Br)cc23)CC1 [Example 33, 1-((6-bromoquinolin-4-yl)thio)cyclopropanecarboxylic acid]
0.658 | O=C(O)C1(Sc2ccnc3ccc(C4CC4)cc23)CCC1 [Example 23, 1-((6-cyclopropylquinolin-4-yl)thio)cyclobutanecarboxylic acid]
0.68 | N#CCOc1ccc2nccc(SC3(C(=O)O)CCC3)c2c1 [Example 24, 1-((6-(cyanomethoxy)quinolin-4-yl)thio)cyclobutanecarboxylic acid]
0.343 | Cc1ccc2nccc(SC3(C(=O)O)CCC3)c2c1 [Example 30, 1-((6-methylquinolin-4-yl)thio)cyclobutanecarboxylic acid]
0.352 | O=C(O)C1(Sc2ccnc3ccc(Br)cc23)CCCC1 [Example 32, 1-((6-bromoquinolin-4-yl)thio)cyclopentanecarboxylic acid]
0.115 | O=C(O)C1(Sc2ccnc3ccc(-c4ccccc4C(F)(F)F)cc23)CCC1 [Example 22, 1-((6-(2-(trifluoromethyl)phenyl)quinolin-4-yl)thio)cyclobutanecarboxylic acid]
0.129 | O=C(O)C1(Sc2ccnc3cc(Br)ccc23)CCC1 [Example 31, 1-((7-bromoquinolin-4-yl)thio)cyclobutanecarboxylic acid]
